Measurements reported in publication PMC6447865, “Novel Group of Imidazole Derivatives as Atypical Selective Cyclooxygenase-2 Inhibitors: Design, Synthesis and Biological Evaluation” (Iranian Journal of Pharmaceutical Research : IJPR, 2018).

Key:
[1] = target: T1, COX-1 enzyme (Ovis aries, UniProt P05979); assay: biochemical; conditions: mean of two values; enzyme incubated with inhibitor 2 min, pH 8.0, 25 °C; arachidonic acid substrate; absorbance 590 nm
T1 construct: purchased Cayman 701050
T1 sequence (P05979 25-600): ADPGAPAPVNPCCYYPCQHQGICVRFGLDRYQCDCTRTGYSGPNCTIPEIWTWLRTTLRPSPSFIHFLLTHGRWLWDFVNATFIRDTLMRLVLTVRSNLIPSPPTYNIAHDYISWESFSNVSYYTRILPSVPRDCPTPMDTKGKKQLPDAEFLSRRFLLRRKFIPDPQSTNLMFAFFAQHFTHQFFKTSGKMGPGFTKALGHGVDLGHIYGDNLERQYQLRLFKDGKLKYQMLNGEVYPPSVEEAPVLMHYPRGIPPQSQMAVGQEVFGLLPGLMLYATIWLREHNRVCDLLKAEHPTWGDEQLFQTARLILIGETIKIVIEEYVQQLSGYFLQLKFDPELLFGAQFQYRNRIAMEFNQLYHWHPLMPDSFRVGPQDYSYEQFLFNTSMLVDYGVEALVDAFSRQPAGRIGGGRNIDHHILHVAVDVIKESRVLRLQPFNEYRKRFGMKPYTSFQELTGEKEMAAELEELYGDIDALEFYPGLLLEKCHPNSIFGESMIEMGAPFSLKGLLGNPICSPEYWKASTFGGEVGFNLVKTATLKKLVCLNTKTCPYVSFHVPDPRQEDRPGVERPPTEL
Protocol: (§1) All test samples were dissolved in DMSO and absorbance was read at 590 nm. The IC50 amounts of the novel compounds were analyzed using nonlinear regression with Dos-response inhibition parameter by the activity base software package (Program Prism, Graph Pad, SanDiego, CA).

[2] = target: T2, COX-2 enzyme (Homo sapiens, UniProt P35354); assay: biochemical; conditions: for IC50: mean of two values, enzyme incubated with inhibitor 2 min, pH 8.0, 25 °C, arachidonic acid substrate, absorbance 590 nm; for COX-2 S.I. (in-vitro COX-2 selectivity index, COX-1/COX-2): ratio IC50 COX-1 / IC50 COX-2
T2 construct: purchased Cayman 701050
T2 sequence (P35354 18-604): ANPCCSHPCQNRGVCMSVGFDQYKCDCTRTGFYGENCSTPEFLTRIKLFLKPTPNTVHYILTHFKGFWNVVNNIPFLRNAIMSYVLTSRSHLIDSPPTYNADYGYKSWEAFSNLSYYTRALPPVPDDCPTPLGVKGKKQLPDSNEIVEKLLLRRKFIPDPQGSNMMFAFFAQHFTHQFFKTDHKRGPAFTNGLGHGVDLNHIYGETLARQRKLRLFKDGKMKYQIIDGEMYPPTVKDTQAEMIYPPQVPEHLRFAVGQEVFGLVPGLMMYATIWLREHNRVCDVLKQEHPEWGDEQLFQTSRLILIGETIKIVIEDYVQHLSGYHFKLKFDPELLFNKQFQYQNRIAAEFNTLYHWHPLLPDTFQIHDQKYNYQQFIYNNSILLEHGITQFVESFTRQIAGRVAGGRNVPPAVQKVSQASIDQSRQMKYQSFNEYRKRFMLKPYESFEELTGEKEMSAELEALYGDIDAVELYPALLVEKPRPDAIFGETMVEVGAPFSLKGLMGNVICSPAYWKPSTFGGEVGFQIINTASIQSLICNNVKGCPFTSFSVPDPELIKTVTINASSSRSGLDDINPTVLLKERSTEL
Protocol: as §1

For CS(=O)(=O)c1ncc(CNc2ccc(Br)cc2)n1Cc1ccccc1 [Compound 5c, N-((1-benzyl-2-(methylsulfonyl)-1H-imidazol-5-yl)methyl)-4-bromobenzamine], the IC50 [1] was 78 µM, the IC50 [2] was 2.8 µM and the “COX-2 S.I. (in-vitro COX-2 selectivity index, COX-1/COX-2)” value [2] was 28. The melting point was 155 °C.
With CS(=O)(=O)c1ncc(CNc2ccccc2)n1Cc1ccccc1 [Compound 5a, N-((1-benzyl-2-(methylsulfonyl)-1H-imidazol-5-yl)methyl)benzamine] the IC50 [1] was 87 µM, the IC50 [2] was 3.2 µM and the “COX-2 S.I. (in-vitro COX-2 selectivity index, COX-1/COX-2)” value [2] was 27. It also gave a melting point of 114 to 115 °C.
For CS(=O)(=O)c1ncc(CNc2ccc(Cl)cc2)n1Cc1ccccc1 [Compound 5e, N-((1-benzyl-2-(methylsulfonyl)-1H-imidazol-5-yl)methyl)-4-chlorobenzamine], the IC50 [1] was 138 µM, the IC50 [2] was 3.6 µM and the “COX-2 S.I. (in-vitro COX-2 selectivity index, COX-1/COX-2)” value [2] was 38. The melting point was 142 °C.
With CS(=O)(=O)c1ncc(CNc2ccc([N+](=O)[O-])cc2)n1Cc1ccccc1 [Compound 5d, N-((1-benzyl-2-(methylsulfonyl)-1H-imidazol-5-yl)methyl)-4-nitrobenzamine] the IC50 [1] was 78 µM, the IC50 [2] was 3 µM and the “COX-2 S.I. (in-vitro COX-2 selectivity index, COX-1/COX-2)” value [2] was 26. It also gave a melting point of 177 °C.
For COc1ccc(NCc2cnc(S(C)(=O)=O)n2Cc2ccccc2)cc1 [Compound 5b, N-((1-benzyl-2-(methylsulfonyl)-1H-imidazol-5-yl)methyl)-4-methoxybenzamine], the IC50 [1] was 82 µM, the IC50 [2] was 0.71 µM and the “COX-2 S.I. (in-vitro COX-2 selectivity index, COX-1/COX-2)” value [2] was 115. The melting point was 152 °C.
